Legend:
[1] = Dissolving tests with ERr 731 dry extract in ethanol and glycerol; format: physicochemical; details: for dissolved proportion, % of theory, Test B / content found in solution, Test B: 200 mg of dry extract in 50 ml of ethanol 30% R; for content found in solution, Test B / content found in solution, Test C / content found in solution, Test D / content found in solution, Test A: extract content 61.9% rhaponticin, 29.9% deoxyrhaponticin; for dissolved proportion, % of theory, Test C / content found in solution, Test C: 200 mg of dry extract in 50 ml of ethanol 50% R; for dissolved proportion, % of theory, Test D / content found in solution, Test D: 200 mg of dry extract in 50 ml of ethanol 86% R; for dissolved proportion, % of theory, Test A / content found in solution, Test A: 200 mg of dry extract in 50 ml of glycerol R
Experimental: Determination of Stilbenes by High-Pressure Liquid Chromatography (HPLC) in the Dry Extract from Rhapontic Rhubarb Root
50 mg of extract, mixed with 40 ml of a mixture of acetone and water (1:1) in an amber glass vessel, treated in an ultrasonic bath for 15 minutes and made up to 50 ml with the solvent mixture and then diluted 1:10 with the solvent mixture.
A high-pressure liquid chromatography (HPLC) is carried out on a portion of the solution obtained above, with the following system parameters:
For a quantitative determination, the respective peak areas are found and compared with the corresponding peak areas of a standard extract of known composition.
a) Dissolving Tests with ERr 731® in Ethanol and Glycerol:
Content of the extract: • 61.9% rhaponticin • 29.9% deoxyrphaponticin

[2] = pH-dependent solubility of rhaponticin in aqueous solutions; format: physicochemical
Text: Use is made of this for its isolation. Since, besides other organic acids, the root in particular has a high content of oxalic acid (⅔ in water-soluble and ⅓ in bound form), this must be neutralized during the isolation in order to prevent the pH drifting into the acidic range and thus to inhibit premature precipitation of the rhaponticin. This is achieved by using calcium oxide. The latter is employed as quicklime solution with a pH of 12.4-12.6.

Row | SMILES | dissolved proportion, % of theory, Test B [1] | content found in solution, Test B [1] | dissolved proportion, % of theory, Test C [1] | content found in solution, Test C [1] | dissolved proportion, % of theory, Test D [1] | content found in solution, Test D [1] | dissolved proportion, % of theory, Test A [1] | content found in solution, Test A [1] | solubility in aqueous solutions ([2]; acidic pH range (pH 3.4-3.6)) | solubility in aqueous solutions ([2]; alkaline pH range)
1 | COc1ccc(C=Cc2cc(O)cc(O[C@@H]3O[C@H](CO)[C@@H](O)[C@H](O)[C@H]3O)c2)cc1 [deoxyrhaponticin] | (84.2% of theory) | 25.2% deoxyrhaponticin | (97.0% of theory) | 29.0% deoxyrhaponticin | (98.7% of theory) | 29.5% deoxyrhaponticin | (90.6% of theory) | 27.1% deoxyrhaponticin |  | 
2 | COc1ccc(C=Cc2cc(O)cc(O[C@@H]3O[C@H](CO)[C@@H](O)[C@H](O)[C@H]3O)c2)cc1O [rhaponticin, 3,3′,5-Trihydroxy-4′-methoxystilbene-3-O-β-D-glucopyranoside] | (84.3% of theory) | 52.2% rhaponticin | (95.0% of theory) | 58.8% rhaponticin | (96.6% of theory) | 59.8% rhaponticin | (89.0% of theory) | 55.1% rhaponticin | precipitated | readily soluble
